From PubChem BioAssay (NCI)
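Briefly, cells in 96-well plates were exposed to five compound concentrations for 48 h, and endpoints were estimated by linear interpolation. Here, GI50 denotes the concentration required for 50% inhibition of growth. Definition used: TGI = concentration required for complete inhibition of growth.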

Tests used:
Test in all cases: NCI anticancer screen, dose series, 48 h
[1] = test system: IGROV1 ovarian
[2] = test system: A498 renal
[3] = test system: SK-OV-3 ovarian
[4] = test system: NCI-H460 lung
[5] = test system: UO-31 renal
[6] = test system: KM12 colon
[7] = test system: SF-268 CNS
[8] = test system: SK-MEL-2 melanoma
[9] = test system: OVCAR-5 ovarian
[10] = test system: U251 CNS
[11] = test system: LOX IMVI melanoma

CON(C)C(=O)C(Cc1ccccc1)NC(=O)OCc1ccccc1 (configuration not stated)
TGI [1]: > 100 µM
TGI [2]: > 100 µM
TGI [3]: > 100 µM
TGI [4]: > 100 µM
TGI [5]: > 100 µM
TGI [6]: > 100 µM
TGI [7]: > 100 µM
TGI [8]: > 100 µM
TGI [9]: > 100 µM
TGI [10]: > 100 µM

O=C(CC1Sc2ccccc2NC1=O)Nc1ccccc1[N+](=O)[O-] (configuration not stated)
TGI [1]: > 100 µM
TGI [2]: > 100 µM
TGI [3]: > 100 µM
TGI [4]: > 100 µM
TGI [5]: > 100 µM
TGI [6]: > 100 µM
TGI [7]: > 100 µM
TGI [11]: > 100 µM
TGI [8]: > 100 µM
TGI [9]: > 100 µM
TGI [10]: > 100 µM

CO[C@](C(=O)OC[C@H]1[C@@H](COC(C)=O)[C@@H]2O[C@H]1c1cc3c(cc12)OCO3)(c1ccccc1)C(F)(F)F
TGI [1]: 81.1 µM
TGI [2]: > 100 µM
TGI [3]: > 100 µM
TGI [4]: 49.6 µM
TGI [5]: 55.4 µM
TGI [6]: > 100 µM
TGI [7]: 77.1 µM
TGI [8]: 91.3 µM
TGI [9]: > 100 µM
TGI [10]: > 100 µM

Oc1ccc(NCn2c(=S)sc3ccccc32)cc1
TGI [1]: > 100 µM
TGI [2]: > 100 µM
TGI [3]: > 100 µM
TGI [4]: > 100 µM
TGI [5]: > 100 µM
TGI [6]: > 100 µM
TGI [7]: > 100 µM
TGI [11]: > 100 µM
TGI [8]: > 100 µM
TGI [9]: > 100 µM
TGI [10]: > 100 µM

CCn1cnc2c(=S)nc(N)[nH]c21
TGI [1]: > 100 µM
TGI [3]: > 100 µM
TGI [4]: > 100 µM
TGI [5]: > 100 µM
TGI [6]: > 100 µM
TGI [7]: > 100 µM
TGI [11]: > 100 µM
TGI [10]: > 100 µM

CCCCCCOc1ccc(/C=N/Nc2cc(C)nc3ccc(Cl)cc23)cc1
GI50 [1]: 1.79 µM
TGI [1]: 3.53 µM
GI50 [2]: 1.77 µM
TGI [2]: 3.4 µM
GI50 [3]: 1.7 µM
TGI [3]: 3.11 µM
GI50 [5]: 1.5 µM
TGI [5]: 2.88 µM
GI50 [6]: 1.67 µM
TGI [6]: 3.38 µM
GI50 [11]: 1.26 µM
TGI [11]: 2.57 µM
GI50 [8]: 1.72 µM
TGI [8]: 3.24 µM
GI50 [9]: 1.92 µM
TGI [9]: 3.35 µM
GI50 [10]: 1.9 µM
TGI [10]: 3.43 µM

CCOC(=O)c1csc(NC(=O)CN2CCCC2)n1
TGI [1]: > 100 µM
TGI [2]: > 100 µM
TGI [3]: > 100 µM
TGI [4]: > 100 µM
TGI [5]: > 100 µM
TGI [6]: > 100 µM
TGI [7]: > 100 µM
TGI [11]: > 100 µM
TGI [8]: > 100 µM
TGI [9]: > 100 µM
TGI [10]: > 100 µM

CC1NC(=O)C(C)C(c2ccccc2)N(N=O)C1c1ccccc1 (configuration not stated)
TGI [1]: > 100 µM
TGI [2]: > 100 µM
TGI [3]: > 79.1 µM
TGI [4]: > 100 µM
TGI [5]: > 100 µM
TGI [6]: > 100 µM
TGI [7]: > 100 µM
TGI [11]: > 100 µM
TGI [8]: > 100 µM
TGI [9]: > 100 µM
TGI [10]: > 100 µM

COc1cc(/C=C2\CN(S(=O)(=O)c3ccc(C)cc3)C/C(=C\c3cc(CN4CCCC4)c(O)c(OC)c3)C2=O)cc(CN2CCCC2)c1O
GI50 [5]: 1.51 µM
TGI [5]: 2.96 µM
GI50 [6]: 1.23 µM
TGI [6]: 2.56 µM
GI50 [11]: 0.649 µM
TGI [11]: 2.02 µM
GI50 [8]: 1.87 µM
TGI [8]: 4.05 µM
GI50 [9]: 2.27 µM
TGI [9]: 3.84 µM
GI50 [10]: 0.82 µM
TGI [10]: 2.34 µM
